Data reported in ChEMBL document CHEMBL1201862, “PubChem BioAssay data set” (2004).
Calls of active or inactive are those of the source.

Legend:
[1] = target: Eukaryotic translation initiation factor 4H (Homo sapiens, UniProt Q15056); test: eIF4H binding inhibition – biochemical, uHTS, fluorescence polarization, translation initiation inhibitor project, primary screen (AID 2012)
[2] = target: Polyadenylate-binding protein 1 (Homo sapiens, UniProt P11940); test: blockers of PABP interaction with poly(A) – biochemical, fluorescence polarization, […] (AID 2014)
Large T antigen = Large T antigen (Simian virus 40, UniProt P03070); assay type: functional, Betapolyomavirus macacae;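 also: Confirmatory-stage PubChem screen for compounds that inhibit SV40 T antigen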
Large T antigen, sequence (P03070 whole entry): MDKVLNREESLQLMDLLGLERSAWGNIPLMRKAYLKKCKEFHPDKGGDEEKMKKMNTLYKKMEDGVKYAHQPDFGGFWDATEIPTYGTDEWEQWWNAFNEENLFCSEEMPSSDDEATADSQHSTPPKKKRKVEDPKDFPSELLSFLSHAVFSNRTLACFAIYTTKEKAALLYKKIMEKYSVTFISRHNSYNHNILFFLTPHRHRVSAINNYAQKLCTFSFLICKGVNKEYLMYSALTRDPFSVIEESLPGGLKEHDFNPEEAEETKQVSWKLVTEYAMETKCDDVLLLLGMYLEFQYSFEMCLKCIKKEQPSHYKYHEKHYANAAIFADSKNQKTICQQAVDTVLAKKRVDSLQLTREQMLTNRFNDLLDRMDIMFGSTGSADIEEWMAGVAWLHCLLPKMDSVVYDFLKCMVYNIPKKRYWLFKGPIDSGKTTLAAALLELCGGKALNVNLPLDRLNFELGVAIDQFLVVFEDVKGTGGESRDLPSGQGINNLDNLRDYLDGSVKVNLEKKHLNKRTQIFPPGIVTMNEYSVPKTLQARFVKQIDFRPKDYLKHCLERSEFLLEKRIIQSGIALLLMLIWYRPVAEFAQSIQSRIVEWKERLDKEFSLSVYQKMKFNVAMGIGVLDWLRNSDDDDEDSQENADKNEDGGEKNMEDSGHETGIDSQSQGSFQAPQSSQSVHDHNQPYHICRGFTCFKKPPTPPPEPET

[3] = target: Induced myeloid leukemia cell differentiation protein Mcl-1 (Homo sapiens, UniProt Q07820); assay type: functional
[4] = target: T1, Alkaline phosphatase, tissue-nonspecific isozyme (Homo sapiens, UniProt P05186); test: activation of tissue-nonspecific alkaline phosphatase – biochemical, TNAP isozyme, mouse IAP uHTS hits, selectivity assay for mouse IAP activator project, dose response (AID 488880); assay type: functional
T1 sequence (P05186 whole entry): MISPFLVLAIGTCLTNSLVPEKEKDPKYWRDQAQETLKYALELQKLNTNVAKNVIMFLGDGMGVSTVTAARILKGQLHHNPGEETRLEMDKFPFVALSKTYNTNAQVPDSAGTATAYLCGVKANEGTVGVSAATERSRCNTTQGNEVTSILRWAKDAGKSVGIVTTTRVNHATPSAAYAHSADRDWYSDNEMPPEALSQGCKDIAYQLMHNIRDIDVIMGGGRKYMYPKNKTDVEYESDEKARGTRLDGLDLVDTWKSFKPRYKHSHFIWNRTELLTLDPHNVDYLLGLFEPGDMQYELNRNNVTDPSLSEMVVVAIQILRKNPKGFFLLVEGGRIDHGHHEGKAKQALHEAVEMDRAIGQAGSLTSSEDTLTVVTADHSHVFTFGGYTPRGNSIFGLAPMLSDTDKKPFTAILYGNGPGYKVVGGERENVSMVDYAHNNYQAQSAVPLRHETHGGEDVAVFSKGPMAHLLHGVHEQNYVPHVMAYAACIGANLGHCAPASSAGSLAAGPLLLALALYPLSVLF

Albumin = Albumin (Bos taurus, UniProt P02769); test: Counterscreen for inhibitors of T-cell receptor (TCR)-CD3 interaction: Fluorescence-based biochemical high throughput dose response assay to identify inhibitors of T-cell receptor (TCR)-CD3 interaction using a TAMRA-labeled BSA probe.; assay type: functional
Caspase-7 = Caspase-7 (Homo sapiens, UniProt P55210); test: caspase-7 enzyme inhibition, selectivity check – biochemical, DEVD-R110 fluorescence, cherry-pick, selectivity assay for caspase-6 inhibitor project, dose response (AID 743295); assay type: functional
Caspase-7, sequence (P55210 24-198 limits assumed): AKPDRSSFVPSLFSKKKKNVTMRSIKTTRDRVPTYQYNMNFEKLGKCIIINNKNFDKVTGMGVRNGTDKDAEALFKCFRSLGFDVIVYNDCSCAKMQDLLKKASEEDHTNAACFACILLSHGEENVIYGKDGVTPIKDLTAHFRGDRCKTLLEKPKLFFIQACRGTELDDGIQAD
Caspase-7, sequence (P55210 207-303 limits assumed): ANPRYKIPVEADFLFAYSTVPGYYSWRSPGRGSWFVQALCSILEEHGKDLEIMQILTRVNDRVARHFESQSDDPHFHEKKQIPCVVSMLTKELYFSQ

[5] = target: Intestinal-type alkaline phosphatase (Homo sapiens, UniProt P09923); test: activation of human intestinal alkaline phosphatase – biochemical, dose response (AID 488873); assay type: functional
Intestinal-type alkaline phosphatase (Homo sapiens, UniProt P09923), sequence (P09923 whole entry): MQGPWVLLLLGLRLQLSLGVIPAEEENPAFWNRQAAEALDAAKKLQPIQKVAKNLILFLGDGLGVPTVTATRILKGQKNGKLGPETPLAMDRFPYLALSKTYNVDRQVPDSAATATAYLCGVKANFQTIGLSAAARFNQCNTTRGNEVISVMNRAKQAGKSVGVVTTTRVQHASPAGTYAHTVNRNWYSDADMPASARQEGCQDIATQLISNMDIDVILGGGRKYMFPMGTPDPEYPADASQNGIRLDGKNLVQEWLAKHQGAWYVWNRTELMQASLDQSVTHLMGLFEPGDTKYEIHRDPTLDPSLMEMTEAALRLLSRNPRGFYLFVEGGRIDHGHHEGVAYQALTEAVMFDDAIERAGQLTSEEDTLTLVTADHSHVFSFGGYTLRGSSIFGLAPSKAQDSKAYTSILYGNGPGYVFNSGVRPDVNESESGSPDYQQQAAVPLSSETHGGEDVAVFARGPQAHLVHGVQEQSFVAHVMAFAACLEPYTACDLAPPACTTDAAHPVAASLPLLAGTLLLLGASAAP

[6] = target: Intestinal-type alkaline phosphatase (Mus musculus, UniProt P24822); test: mouse intestinal alkaline phosphatase activators, dose response, biochemical, luminescence, uHTS hits (AID 488783); assay type: functional
Intestinal-type alkaline phosphatase (Mus musculus, UniProt P24822), sequence (P24822 whole entry): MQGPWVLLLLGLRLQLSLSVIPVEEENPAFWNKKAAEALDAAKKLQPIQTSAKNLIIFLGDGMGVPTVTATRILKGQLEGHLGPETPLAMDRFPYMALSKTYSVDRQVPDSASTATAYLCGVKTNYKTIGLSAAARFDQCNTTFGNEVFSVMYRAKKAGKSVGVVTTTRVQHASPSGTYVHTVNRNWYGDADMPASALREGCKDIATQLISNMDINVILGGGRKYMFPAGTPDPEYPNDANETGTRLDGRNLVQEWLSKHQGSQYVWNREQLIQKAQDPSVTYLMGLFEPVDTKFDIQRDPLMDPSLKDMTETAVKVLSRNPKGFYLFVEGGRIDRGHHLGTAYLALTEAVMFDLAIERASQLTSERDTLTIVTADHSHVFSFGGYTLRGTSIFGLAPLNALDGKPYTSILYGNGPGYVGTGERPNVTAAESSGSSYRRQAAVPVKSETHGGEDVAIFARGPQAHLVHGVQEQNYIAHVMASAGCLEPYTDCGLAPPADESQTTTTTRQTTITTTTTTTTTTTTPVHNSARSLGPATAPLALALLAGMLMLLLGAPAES

Caspase-6 = target: T2, Caspase-6 (Homo sapiens, UniProt P55212); test: inhibition of CASP6 peptide cleavage – biochemical, VEID-R110 fluorescence, cherry-pick, dose response (AID 720632)
T2 sequence (P55212 whole entry): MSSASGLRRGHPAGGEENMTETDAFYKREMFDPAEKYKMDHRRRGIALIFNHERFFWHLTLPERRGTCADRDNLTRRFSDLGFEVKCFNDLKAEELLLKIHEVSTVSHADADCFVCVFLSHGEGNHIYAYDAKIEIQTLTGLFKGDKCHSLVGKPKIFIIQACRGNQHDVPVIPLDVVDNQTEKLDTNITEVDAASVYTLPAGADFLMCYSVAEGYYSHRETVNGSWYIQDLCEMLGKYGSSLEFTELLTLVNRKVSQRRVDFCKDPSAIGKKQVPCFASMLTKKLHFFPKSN

[7] = target: Ras and Rab interactor 1/Tyrosine-protein kinase ABL1 (Homo sapiens, UniProt P00519+Q13671); assay type: functional;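 also: biochemical TR-FRET dose-response test measuring inhibition of binding between Rin1 and Abl proteins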
[8] = target: T3, G-protein coupled receptor 35 (Homo sapiens, UniProt Q9HC97); test: SAR analysis of Antagonists of the GPR35 Receptor using an Image-Based Assay - Set 3. [Related pubchem assays (depositor defined):AID2013, AID2026]; assay type: functional
T3 sequence (Q9HC97 whole entry): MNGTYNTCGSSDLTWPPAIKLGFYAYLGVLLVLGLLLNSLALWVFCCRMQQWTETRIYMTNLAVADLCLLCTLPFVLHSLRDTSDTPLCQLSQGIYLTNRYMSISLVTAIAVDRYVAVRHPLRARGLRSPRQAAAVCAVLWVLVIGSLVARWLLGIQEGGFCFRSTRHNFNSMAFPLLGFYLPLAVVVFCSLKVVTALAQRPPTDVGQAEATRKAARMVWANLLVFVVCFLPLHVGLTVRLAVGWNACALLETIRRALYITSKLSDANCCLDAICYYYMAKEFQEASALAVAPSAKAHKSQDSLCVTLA

Cannabinoid receptor 2 [9] = target: T4, Cannabinoid receptor 2 (Homo sapiens, UniProt P34972); test: SAR analysis of agonists of the Cannabinoid Receptor 2 using an Image-Based Assay. [Related pubchem assays (depositor defined):AID2013, AID2026]; assay type: functional
T4 sequence (P34972 whole entry): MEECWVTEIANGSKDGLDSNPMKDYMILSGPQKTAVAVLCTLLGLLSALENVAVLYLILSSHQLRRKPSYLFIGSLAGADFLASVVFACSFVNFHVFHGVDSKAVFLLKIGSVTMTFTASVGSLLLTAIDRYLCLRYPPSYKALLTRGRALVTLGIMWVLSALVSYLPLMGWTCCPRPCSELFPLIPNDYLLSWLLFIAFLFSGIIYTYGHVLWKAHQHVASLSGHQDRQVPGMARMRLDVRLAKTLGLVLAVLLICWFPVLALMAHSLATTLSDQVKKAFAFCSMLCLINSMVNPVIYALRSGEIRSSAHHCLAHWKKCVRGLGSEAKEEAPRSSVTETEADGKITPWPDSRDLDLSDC

[10] = target: T3, G-protein coupled receptor 35; test: SAR analysis of Agonists of the GPR35 Receptor using an Image-Based Assay - Set 2. [Related pubchem assays (depositor defined):AID2013, AID2026]; assay type: functional
Cannabinoid receptor 1 [11] = target: T5, Cannabinoid receptor 1 (Homo sapiens, UniProt P21554); test: SAR analysis of agonists of the Cannabinoid Receptor 1 using an Image-Based Assay - Set 2. [Related pubchem assays (depositor defined):AID2013, AID2026]; assay type: functional
T5 sequence (P21554 whole entry): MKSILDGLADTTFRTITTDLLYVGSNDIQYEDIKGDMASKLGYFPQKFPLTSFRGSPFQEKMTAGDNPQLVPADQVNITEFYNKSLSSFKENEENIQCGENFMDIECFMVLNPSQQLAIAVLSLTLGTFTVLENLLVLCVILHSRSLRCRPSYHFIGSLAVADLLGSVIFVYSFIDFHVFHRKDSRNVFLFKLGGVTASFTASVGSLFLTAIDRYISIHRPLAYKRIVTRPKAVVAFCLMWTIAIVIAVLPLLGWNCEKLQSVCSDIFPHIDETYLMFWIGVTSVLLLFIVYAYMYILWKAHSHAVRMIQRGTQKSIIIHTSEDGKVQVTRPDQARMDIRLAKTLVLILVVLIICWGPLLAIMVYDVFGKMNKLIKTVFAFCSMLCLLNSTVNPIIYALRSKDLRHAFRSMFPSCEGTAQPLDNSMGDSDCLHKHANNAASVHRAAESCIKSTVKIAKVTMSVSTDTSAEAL

Cannabinoid receptor 1 [12] = target: T5, Cannabinoid receptor 1; test: SAR analysis of antagonists of the Cannabinoid Receptor 1 using an Image-Based Assay - Set 2. [Related pubchem assays (depositor defined):AID2013, AID2026]; assay type: functional
Streptokinase A = target: T6, Streptokinase A (Streptococcus pyogenes serotype M1, UniProt P10520); test: viability-normalized secreted streptokinase activity reduction – plasminogen activation absorbance, OD405, dose response (AID 1914); assay type: functional, Streptococcus pyogenes M1 GAS;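 also: secreted streptokinase activity via plasminogen activation per viability signal from cell pellet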
T6 sequence (P10520 whole entry): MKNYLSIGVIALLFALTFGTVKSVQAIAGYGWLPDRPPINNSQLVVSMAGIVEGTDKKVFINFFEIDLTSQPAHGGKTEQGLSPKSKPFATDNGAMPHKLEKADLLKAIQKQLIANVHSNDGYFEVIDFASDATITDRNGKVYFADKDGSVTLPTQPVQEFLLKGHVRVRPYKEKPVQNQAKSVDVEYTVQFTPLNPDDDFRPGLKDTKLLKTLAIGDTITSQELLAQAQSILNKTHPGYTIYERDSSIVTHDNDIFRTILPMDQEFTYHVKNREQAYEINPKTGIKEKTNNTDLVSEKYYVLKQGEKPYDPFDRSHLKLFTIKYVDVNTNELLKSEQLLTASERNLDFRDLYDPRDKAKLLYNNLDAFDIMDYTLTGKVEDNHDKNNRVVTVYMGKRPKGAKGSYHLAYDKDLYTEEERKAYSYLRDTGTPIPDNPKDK

Cannabinoid receptor 2 [13] = target: T4, Cannabinoid receptor 2; test: SAR analysis of antagonists of the Cannabinoid Receptor 2 using an Image-Based Assay. [Related pubchem assays (depositor defined):AID2013, AID2026]; assay type: functional
[14] = target: T7, G-protein coupled receptor 55 (Homo sapiens, UniProt Q9Y2T6); test: blockade of LPI-induced GPR55 arrestin translocation – imaging, U2OS, beta-arrestin-GFP, LPI agonist, set 2, SAR follow-up (AID 2820); assay type: functional
T7 sequence (Q9Y2T6 whole entry): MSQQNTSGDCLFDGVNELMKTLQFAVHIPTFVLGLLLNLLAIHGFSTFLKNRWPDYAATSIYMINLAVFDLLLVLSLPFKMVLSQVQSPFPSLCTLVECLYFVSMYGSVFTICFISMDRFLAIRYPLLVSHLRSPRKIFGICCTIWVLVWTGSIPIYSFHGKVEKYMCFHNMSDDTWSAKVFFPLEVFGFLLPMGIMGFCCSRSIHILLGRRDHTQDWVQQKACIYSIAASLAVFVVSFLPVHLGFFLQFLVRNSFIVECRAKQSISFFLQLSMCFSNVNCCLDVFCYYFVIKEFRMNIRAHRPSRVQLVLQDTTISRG

[15] = target: T7, G-protein coupled receptor 55; test: inhibition of LPI-stimulated GPR55 beta-arrestin translocation – imaging, U2OS, beta-arrestin-GFP, LPI agonist, primary screen (AID 2013); assay type: functional;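 also: antagonist potency measured as reduced agonist-driven arrestin aggregation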
[16] = target: T8, Kappa-type opioid receptor (Homo sapiens, UniProt P41145); test: SAR analysis of Antagonists of the Kappa Opioid Receptor (KOR) using an Image-Based Assay - Set 4. [Related pubchem assays (depositor defined):AID1777, AID1785]; assay type: functional
T8 sequence (P41145 whole entry): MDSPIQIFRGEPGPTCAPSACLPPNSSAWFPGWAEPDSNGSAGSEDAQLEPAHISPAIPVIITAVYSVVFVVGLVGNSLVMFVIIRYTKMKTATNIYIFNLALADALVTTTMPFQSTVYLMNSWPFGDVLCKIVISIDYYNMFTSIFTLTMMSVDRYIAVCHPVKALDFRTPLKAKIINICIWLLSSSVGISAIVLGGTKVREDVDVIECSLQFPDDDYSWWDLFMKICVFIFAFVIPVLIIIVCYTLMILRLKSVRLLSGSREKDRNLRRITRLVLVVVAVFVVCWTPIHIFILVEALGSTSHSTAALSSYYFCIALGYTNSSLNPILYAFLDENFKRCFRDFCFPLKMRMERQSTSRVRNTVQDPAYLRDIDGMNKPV

[17] = target: Delta-type opioid receptor (Homo sapiens, UniProt P41143); test: SAR Analysis of Antagonists of the DOR Receptor using an Image-Based Assay - Set 3. [Related pubchem assays (depositor defined):AID1777, AID1785]; assay type: functional;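 also: U2OS cells expressing DOR1 and beta-arrestin GFP stimulated with 100 nM SNC80; imaging of GFP-tagged beta-arrestin moving into spots after receptor activation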
Delta-type opioid receptor, sequence (P41143 whole entry): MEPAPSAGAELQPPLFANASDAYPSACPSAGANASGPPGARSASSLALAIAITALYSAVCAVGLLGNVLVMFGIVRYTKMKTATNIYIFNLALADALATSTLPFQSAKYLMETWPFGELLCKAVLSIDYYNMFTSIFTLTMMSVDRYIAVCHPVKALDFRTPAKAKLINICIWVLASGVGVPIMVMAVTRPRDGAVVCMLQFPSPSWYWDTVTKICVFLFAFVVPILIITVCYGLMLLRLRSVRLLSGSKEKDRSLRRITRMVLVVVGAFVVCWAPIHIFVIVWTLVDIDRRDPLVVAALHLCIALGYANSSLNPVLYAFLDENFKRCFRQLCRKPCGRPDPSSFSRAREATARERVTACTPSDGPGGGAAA

Mu-type opioid receptor = Mu-type opioid receptor (Homo sapiens, UniProt P35372); test: SAR Analysis of Antagonists of the MOR Receptor using an Image-Based Assay - Set 3. [Related pubchem assays (depositor defined):AID1777, AID1785, AID1786, AID1966, AID2133, AID2136, AID2284, AID2285, AID2420]; assay type: functional
Mu-type opioid receptor, sequence (P35372 whole entry): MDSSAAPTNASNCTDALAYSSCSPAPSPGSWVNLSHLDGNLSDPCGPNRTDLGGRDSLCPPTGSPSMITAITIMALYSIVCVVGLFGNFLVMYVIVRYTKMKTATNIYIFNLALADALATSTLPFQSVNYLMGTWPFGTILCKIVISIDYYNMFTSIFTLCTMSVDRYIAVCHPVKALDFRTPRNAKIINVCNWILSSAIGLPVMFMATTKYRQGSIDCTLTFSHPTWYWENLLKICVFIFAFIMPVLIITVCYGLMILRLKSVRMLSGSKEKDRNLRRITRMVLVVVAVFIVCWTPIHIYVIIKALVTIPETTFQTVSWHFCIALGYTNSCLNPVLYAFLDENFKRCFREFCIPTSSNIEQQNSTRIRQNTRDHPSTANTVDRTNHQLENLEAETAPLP

[18] = target: T8, Kappa-type opioid receptor; test: SAR analysis of small molecule agonists of the kappa opioid receptor via a luminescent beta-arrestin assay - Set 3. [Related pubchem assays (depositor defined):AID1777, AID1785, AID1786, AID1966, AID2133, AID2136, AID2284, AID2500]; assay type: functional
[19] = target: T9, Tyrosine-protein phosphatase non-receptor type 22 (Homo sapiens, UniProt Q9Y2R2); test: SAR LYP1 Fluorescent Assay using OMFP substrate for In Vitro dose response studies - Set 3. [Related pubchem assays (depositor defined):AID1779, AID1784, AID2140, AID2686]; assay type: functional
T9 sequence (Q9Y2R2 whole entry): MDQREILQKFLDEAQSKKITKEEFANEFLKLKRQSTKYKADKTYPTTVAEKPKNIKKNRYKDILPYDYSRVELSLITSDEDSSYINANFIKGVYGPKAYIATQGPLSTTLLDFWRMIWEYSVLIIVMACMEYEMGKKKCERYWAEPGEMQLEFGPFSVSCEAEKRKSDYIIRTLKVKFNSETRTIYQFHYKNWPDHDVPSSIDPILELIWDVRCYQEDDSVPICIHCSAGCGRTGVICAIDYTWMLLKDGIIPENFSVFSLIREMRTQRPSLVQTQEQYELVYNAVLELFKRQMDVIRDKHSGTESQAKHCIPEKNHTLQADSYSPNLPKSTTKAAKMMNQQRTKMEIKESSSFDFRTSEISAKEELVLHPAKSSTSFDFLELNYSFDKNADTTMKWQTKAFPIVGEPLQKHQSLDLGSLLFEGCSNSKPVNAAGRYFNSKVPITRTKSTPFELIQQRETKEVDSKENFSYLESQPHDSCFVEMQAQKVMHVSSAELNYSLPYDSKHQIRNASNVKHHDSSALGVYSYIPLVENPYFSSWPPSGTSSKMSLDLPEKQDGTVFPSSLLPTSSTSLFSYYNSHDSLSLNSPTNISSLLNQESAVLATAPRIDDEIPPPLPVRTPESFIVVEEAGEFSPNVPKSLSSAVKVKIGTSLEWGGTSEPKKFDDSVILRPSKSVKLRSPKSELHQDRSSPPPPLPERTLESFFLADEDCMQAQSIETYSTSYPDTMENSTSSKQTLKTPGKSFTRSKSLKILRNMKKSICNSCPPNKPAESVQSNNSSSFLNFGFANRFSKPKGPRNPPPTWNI

[20] = target: T9, Tyrosine-protein phosphatase non-receptor type 22; test: SAR LYP1 Fluorescent Assay using OMFP substrate for In Vitro dose response studies - Set 2. [Related pubchem assays (depositor defined):AID1779, AID1784, AID2140, AID449726, AID488869]; assay type: functional
[21] = target: T9, Tyrosine-protein phosphatase non-receptor type 22; test: inhibition of lymphoid tyrosine phosphatase LYP – biochemical, pCAP fluorogenic substrate, fluorescence, set 3, SAR follow-up (AID 449727); assay type: functional
[22] = target: Tyrosine-protein phosphatase non-receptor type 12 (Homo sapiens, UniProt Q05209); test: SAR Selectivity Analysis of small molecule inhibitors of PEST using pCAP in a fluorescence assay. [Related pubchem assays (depositor defined):AID1779, AID1784, AID2135]; assay type: functional
[23] = target: T9, Tyrosine-protein phosphatase non-receptor type 22; test: SAR LYP1 Fluorescent Assay using pCAP substrate for In Vitro dose response studies - Set 2. [Related pubchem assays (depositor defined):AID1779, AID1784, AID2135, AID449727]; assay type: functional
[24] = target: T10, Tyrosine-protein phosphatase non-receptor type 7 (Homo sapiens, UniProt P35236); test: inhibition of hematopoietic tyrosine phosphatase HePTP – biochemical, set 2, SAR follow-up (AID 449736); assay type: functional
T10 sequence (P35236 whole entry): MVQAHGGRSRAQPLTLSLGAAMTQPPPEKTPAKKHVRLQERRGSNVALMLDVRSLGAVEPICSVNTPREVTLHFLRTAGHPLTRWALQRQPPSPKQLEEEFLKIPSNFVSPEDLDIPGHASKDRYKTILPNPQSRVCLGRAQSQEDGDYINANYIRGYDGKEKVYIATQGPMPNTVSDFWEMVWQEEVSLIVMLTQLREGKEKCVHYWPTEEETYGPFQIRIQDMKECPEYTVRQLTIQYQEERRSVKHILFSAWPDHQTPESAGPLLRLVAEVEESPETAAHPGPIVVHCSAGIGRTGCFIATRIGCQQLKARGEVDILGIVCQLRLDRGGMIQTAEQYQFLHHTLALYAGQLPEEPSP

O=C(O)CC(CCc1ccccc1)OC1OC(CO)C(O)C(O)C1O (stereo not given)
IC50 [1]: 23.6 µM (active) | IC50 [2]: 69.4 µM (active) | IC50 (Large T antigen): 57.6 µM (active) | IC50 [3]: 1.61 µM (active) | EC50 [4]: 57.6 µM (active) | IC50 (Albumin): > 94.1 µM (inactive) | AC50 (Caspase-7): 30.9 µM (active) | EC50 [5]: 59.2 µM (active) | EC50 [6]: 33.7 µM (active) | AC50 (Caspase-6): 0.283 µM (active) | IC50 [7]: 50.2 µM (inactive)

COc1ccc(NS(=O)(=O)c2ccc3nc(COc4cccc5ccccc45)[nH]c3c2)cc1
IC50 [8]: > 32 µM (inactive) | EC50 (Cannabinoid receptor 2 [9]): > 32 µM (inactive) | EC50 [10]: > 32 µM (inactive) | EC50 (Cannabinoid receptor 1 [11]): > 32 µM (inactive) | IC50 (Cannabinoid receptor 1 [12]): 2.24 µM (active) | EC50 (Streptokinase A): 6.16 µM (active) | IC50 (Cannabinoid receptor 2 [13]): > 32 µM (inactive) | IC50 [14]: 1.45 µM (active) | IC50 [15]: 1.76 µM (active)

CC(C)OC(=O)C1(N(Cc2ccco2)C(=O)c2ccccn2)CCCCC1
IC50 [16]: > 32 µM (inactive) | IC50 [17]: > 32 µM (inactive) | IC50 (Mu-type opioid receptor): 15 µM (inactive) | EC50 [18]: > 20 µM (inactive)

O=C(O)COc1ccccc1/C=N/NC(=O)c1ccc(-c2csc(Nc3ccc(Cl)cc3)n2)cc1
IC50 [19]: 1.29 µM (active) | IC50 [20]: 5.67 µM (active) | IC50 [21]: 3.5 µM (active) | IC50 [22]: 1.49 µM (active) | IC50 [23]: 4.1 µM (active) | IC50 [24]: 0.841 µM (active)
